Experimental data taken from PubChem BioAssay (NCI).
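Dose response: 5 concentrations. Exposure: 48 h. Format: 96-well plates. Endpoint: linear interpolation; highest concentration if not reached. TGI marks complete inhibition of growth.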

Assays:
Experiment in all cases: DTP human tumour cell line panel, 48 h
SK-MEL-28 melanoma = system: SK-MEL-28 melanoma
DU-145 prostate = system: DU-145 prostate
HS 578T breast = system: HS 578T breast
SF-539 CNS = system: SF-539 CNS
HCT-116 colon = system: HCT-116 colon
A549 NSCLC = system: A549 NSCLC
SF-295 CNS = system: SF-295 CNS
MDA-MB-435 = system: MDA-MB-435
RXF 393 renal = system: RXF 393 renal
SW-620 colon = system: SW-620 colon
HOP-92 NSCLC = system: HOP-92 NSCLC
UACC-257 melanoma = system: UACC-257 melanoma
MCF7 breast = system: MCF7 breast
A498 renal = system: A498 renal

Compound	TGI (SK-MEL-28 melanoma)	TGI (DU-145 prostate)	TGI (HS 578T breast)	TGI (SF-539 CNS)	TGI (HCT-116 colon)	TGI (A549 NSCLC)	TGI (SF-295 CNS)	TGI (MDA-MB-435)	TGI (RXF 393 renal)	TGI (SW-620 colon)	TGI (HOP-92 NSCLC)	TGI (UACC-257 melanoma)	TGI (MCF7 breast)	TGI (A498 renal)
COc1ccc(N=C/C=C/C(=C/COC(C)=O)OC(C)=O)cc1	65.9 µM	> 100 µM	> 100 µM	> 100 µM	28.7 µM	> 100 µM	> 100 µM	> 100 µM	57.4 µM	32.6 µM	57.4 µM	87.2 µM	> 100 µM	62.9 µM
COc1cc(/C=C2\N=C(c3ccccc3)N(/N=C/c3cc4cc(C)ccc4nc3Cl)C2=O)ccc1O	> 100 µM	> 100 µM	> 100 µM	> 100 µM	51.8 µM	> 100 µM	> 100 µM	36.7 µM	> 100 µM	> 100 µM	> 100 µM	> 100 µM	63.1 µM	55.3 µM
COC(=O)C1(Cc2ccccc2C)Cc2ccc(C)cc2C1=O (centres undefined)	> 100 µM	> 100 µM	> 100 µM	> 100 µM	> 100 µM	> 100 µM	> 100 µM	> 100 µM	96.4 µM	> 100 µM	71.3 µM	> 100 µM	41 µM	> 100 µM
O=C(CN1c2ccccc2Sc2ccccc21)n1cnc2ccccc21	> 100 µM	> 100 µM	> 100 µM	> 100 µM	> 100 µM	> 100 µM	> 100 µM	> 100 µM	> 100 µM	> 100 µM	93.9 µM	> 100 µM	> 100 µM	> 100 µM
N/C(=N/O)c1cn(C2OC(CO)C(O)C2O)c2ncnc(NO)c12 (centres undefined)	> 51.3 µM	> 40 µM	> 100 µM	5.03 µM	> 77.4 µM	> 100 µM	54.7 µM	0.805 µM	14.7 µM	> 46.1 µM	> 45.4 µM	4.4 µM	23.2 µM	3.01 µM
C=CCSC1=N/C(=C\c2ccco2)C(=O)N1CC=C	> 100 µM	> 100 µM	> 100 µM	> 100 µM	> 100 µM	> 100 µM	> 100 µM	> 100 µM	65.7 µM	> 100 µM	> 100 µM	> 100 µM	> 100 µM	94.1 µM
C[N+](C)(C)C(Cc1c[nH]c(=S)[nH]1)C(=O)O (centres undefined)	> 100 µM	> 100 µM	> 100 µM	> 100 µM	> 100 µM	> 100 µM	> 100 µM	> 100 µM	> 100 µM	> 100 µM	> 100 µM	> 100 µM	> 100 µM	> 100 µM
CCOC(=O)c1cc(NC(=O)c2ccccc2)c(=O)n2c(cc3c(Cl)cccc32)c1O	> 100 µM	> 100 µM	> 100 µM	> 100 µM	> 100 µM	> 100 µM	> 100 µM	> 100 µM	> 100 µM	> 100 µM	> 100 µM	> 100 µM	> 100 µM	> 100 µM
COC(=O)C1CCCCCCCCCCC12SCCCS2 (centres undefined)	36.1 µM	39.2 µM	90.5 µM	47.4 µM	30.2 µM	36.7 µM	39 µM	36.2 µM	36.4 µM	81.9 µM	39.9 µM	40.2 µM	> 100 µM	49.7 µM
COc1ccc2c(c1)CC[C@@H]1C2CC[C@]2(C)C(=O)N(C)C(=O)CC12 (some centres undefined)	> 100 µM	> 100 µM	> 100 µM	> 100 µM	> 100 µM	> 100 µM	> 100 µM	> 100 µM	> 100 µM	> 100 µM	> 100 µM	> 100 µM	> 100 µM	> 100 µM
CC(=O)NC1C(OCc2ccccc2)OC(CO)C(O)C1OCC(=O)NC(C)C(=O)NC(CCC(=O)Nc1ccc2c(c1)CN1C(=O)c3ccccc3C1=N2)C(N)=O (centres undefined)	> 100 µM	> 100 µM	> 100 µM	> 100 µM	> 100 µM	> 100 µM	> 100 µM	> 100 µM	> 100 µM	> 100 µM	> 100 µM	> 100 µM	> 100 µM	> 100 µM
